Measurements from patent US20080207616A1, “Quinoxalines as B Baf Inhhibitors” (AstraZeneca AB, priority 2004, published 2008).

Target: T1, human recombinant, purified wild type His-B-Raf protein kinase (Homo sapiens, UniProt P15056)
T1 construct: His
Test: B-Raf In Vitro ELISA Assay
Assay type: biochemical
Conditions: phosphorylation of MEK1; 2.5 nM B-Raf, 0.15 μM MEK1, 10 μM ATP; 1 hour preincubation at 25° C.
Protocol: B-Raf In Vitro ELISA Assay
Activity of human recombinant, purified wild type His-B-Raf protein kinase was determined in vitro using an enzyme-linked immunosorbent assay (ELISA) assay format, which measures phosphorylation of the B-Raf substrate, human recombinant, purified His-derived (detagged) MEK1. The reaction utilized 2.5 nM B-Raf, 0.15 μM MEK1 and 10 μM adenosine triphosphate (ATP) in 40 mM N-(2-Hydroxyethyl)piperazine-N′-(2-ethanesulfonic acid hemisodium salt (HEPES), […] 1,4-Dithio-DL-threitol (DTT), 10 mM MgCl2, 1 mM ethylenediaminetetraacetic acid (EDTA) and 0.2 M NaCl (1×HEPES buffer), with or without compound at various concentrations, in a total reaction volume of 25 μl in 384 well plates. B-Raf and compound were preincubated in 1×HEPES buffer for 1 hour at 25° C. Reactions were initiated with addition of MEK1 and ATP in 1× HEPES buffer and incubated at 25° C. for 50 minutes and reactions stopped by addition of 10 μl 75 mM EDTA (final concentration […]) in 1×HEPES buffer. 5 μl of the assay mix was then diluted 1:20 into 50 mM EDTA in 1×HEPES buffer, transferred to 384 well black high protein binding plates and incubated overnight at 4° C. […] Blue fluorescent product was detected at excitation 325 nm and emission 420 nm using a TECAN Ultra plate reader. Data was graphed and IC50s calculated using Excel Fit (Microsoft).

T1 sequence (P15056 whole entry): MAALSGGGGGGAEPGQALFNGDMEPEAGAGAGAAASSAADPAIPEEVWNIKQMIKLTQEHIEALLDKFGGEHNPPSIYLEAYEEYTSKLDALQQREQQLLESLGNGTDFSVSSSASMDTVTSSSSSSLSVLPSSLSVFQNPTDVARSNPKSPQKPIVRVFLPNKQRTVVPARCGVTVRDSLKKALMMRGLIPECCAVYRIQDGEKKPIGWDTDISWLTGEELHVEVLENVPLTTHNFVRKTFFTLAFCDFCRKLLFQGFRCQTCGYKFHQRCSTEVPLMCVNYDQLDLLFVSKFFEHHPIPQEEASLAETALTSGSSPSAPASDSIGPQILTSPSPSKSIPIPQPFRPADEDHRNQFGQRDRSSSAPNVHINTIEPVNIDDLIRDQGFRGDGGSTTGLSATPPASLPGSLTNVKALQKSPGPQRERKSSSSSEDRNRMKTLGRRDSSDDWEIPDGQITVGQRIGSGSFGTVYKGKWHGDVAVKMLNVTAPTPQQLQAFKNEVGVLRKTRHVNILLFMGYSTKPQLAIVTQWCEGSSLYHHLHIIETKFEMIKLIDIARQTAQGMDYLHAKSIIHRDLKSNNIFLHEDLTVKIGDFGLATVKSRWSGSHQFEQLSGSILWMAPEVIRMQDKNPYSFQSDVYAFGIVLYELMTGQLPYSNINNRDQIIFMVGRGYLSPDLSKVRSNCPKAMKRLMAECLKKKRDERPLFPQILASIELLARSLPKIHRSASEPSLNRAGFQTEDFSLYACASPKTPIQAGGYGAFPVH

IC50	SMILES
20 nM	CCCOc1cccc(C(=O)Nc2ccc(C)c(NC(=O)c3ccc4nccnc4c3)c2)c1 [Example 12, N-{2-Methyl-5-[(3-propoxybenzoyl)amino]phenyl}quinoxaline-6-carboxamide]
742 nM	CCc1cccc(C(=O)Nc2ccc(C)c(NC(=O)c3ccc4nccnc4c3)c2)c1 [Example 11, N-{5-[(3-Ethylbenzoyl)amino]-2-methylphenyl}quinoxaline-6-carboxamide]
